Laboratory results from patent US8772347B2, “Use of a pharmaceutical composition for promoting proliferation and/or migration of skin cells, and for improving wound healing in a subject” (Kaohsiung Medical University, priority 2011, dated 2014).

Legend:
MMP-1 [1] = assay: Collagen zymography, MMP-1 activity of human fibroblasts; type: cell-based
Protocol: Collagen zymography is performed to analyze the effect on the MMP-1 activity of skin cells treated with 6-DG. After electrophoresis of the foregoing lysed cell extract in SDS-PAGE containing 0.1% collagen, the SDS-PAGE is reacted with 2.5% Triton X-100 to remove SDS and make the protein of the lysed extract folded, and then incubated with a Tris-base buffer containing NaCl, CaCl2, and ZnCl2. Finally, this gel is stained with Coomassie Brilliant Blue R250, and the signal at 52 kDa […] position on the gel is calculated by Gel Pro v4.0 software (Media Cybernetics, Silver Spring, Md., USA).
“BACKGROUND OF THE INVENTION” of the content is said that PMA, an activator for protein kinase C, phosphorylates JNK and ERK to produce MMP-1, and inhibits TIMP-1. For confirming the effect on the MMP-1 activity of skin cells treated with 6-DG, the human fibroblasts are incubated with 20 ng/ml PMA prior to being treated with 6-DG.

human fibroblasts [2] = assay: Migration of skin cells into wound area (scratch assay, TScratch); type: cell-based
Protocol: (§1) Skin cells are cultured following the method provided in Exp Dermatol 2011; 20: 242-8. Human skin fibroblasts are derived from Chung-Ho Memorial Hospital, Kaohsiung Medical University, Taiwan, ROC, and incubated in Dulbecco's Modified Eagle Medium including 10% fetal calf serum, 100 μg/ml streptomycin, and 250 ng/ml amphotericin B. Human keratinocytes are isolated from foreskin primary culture and cultured in Keratinocyte-SFM Medium supplemented with Bovine Pituitary Extract and EGF. All of these cells are incubated at 37° C. in a humidified incubator with 5% CO2 atmosphere.
(§2) An assay disclosed in Process Biochemistry 2010; 45:1865-72 is performed to analyze the effect on migration of skin cells treated with different 6-DG concentration (dissolved in DMSO). 5×10^5 skin cells are seeded in a 12-well culture dish and grown to complete confluence. Prior to adding 6-DG of different concentration to the dish, a clean […] would area is created on the skin cells. The wound area is photographed using an inverted phase-contrast microscopy (TE2000-U; Nikon, Tokyo, Japan) equipped with NIS-Elements software (Nikon), and the skin cell migration in the wound area is calculated by the free software “TScratch” (www.cse-lab.ethz.ch/software.html). Considering whether DMSO has effect on the skin cell migration or not, skin cells treated with 0.5% DMSO are used as a control.

human keratinocytes [3] = assay: as above; type: cell-based
Protocol: as §1, §2

collagen = assay: Sirius red collagen staining, human fibroblasts; type: cell-based; conditions: for collagen expression level of fibroblasts: FIG. 5(B); for collagen expression level per human fibroblast: FIG. 5(C)
Protocol: Sirius red collagen staining is performed to analyze the effect on the collagen expression of skin cells treated with 6-DG 6-DG of different concentration is added to a 24-well culture dish cultured with human fibroblasts. Medium in the dish is removed and the fibroblasts are washed with PBS twice. 100 μl Sirius Red is added to each well of the dish and incubated at room temperature for 1 hr. After removing the unstained Sirius Red, the fibroblasts are washed with 100 μl 0.1N HCl for at least five times, and then 100 μl 0.1N NaOH is used to extract the stained Sirius Red. Finally, the OD value of the extracted stained Sirius Red is calculated by 540 nm-wavelength light. As the described in “BACKGROUND OF THE INVENTION,” it is said that PMA, an activator for protein kinase C, phosphorylates JNK and ERK to produce MMP-1, and inhibits TIMP-1. With regard to the effect on the collagen expression of skin cells treated with 6-DG, the human fibroblasts are incubated with 20 ng/ml PMA prior to being incubated with 6-DG.

human fibroblasts [4] = assay: MTT assay, proliferation of skin cells; type: cell-based; conditions: for proliferation of human fibroblasts compared with control: 24 hr, MTT, FIG. 2(A)
Protocol: as §1
(§3) 3-(4,5-cimethylthiazol-2-yl)-2,5-diphenyl tetrazolium bromide assay (MTT assay) is performed to analyze the effect on the proliferation of skin cells treated with different 6-DG concentration (dissolved in DMSO). Firstly, 6-DG of different concentration is seeded in a 96-well culture dish cultured with skin cells and incubated for 24 hr. MIT solution (5 mg/ml, dissolved in PBS) is added into the dish and incubated again at 37° C. for 2 hr. Medium in the dish is removed, 0.05 ml DMSO is added to the dish, and then the dish is shaken in a dark position for 20 min. Finally, the OD value of each well of the dish is calculated by 595 nm-wavelength light (UV-vis, BioTek, USA). Considering whether DMSO has effect on the skin cell proliferation or not, skin cells treated with DMSO are used as a control.

human keratinocytes [5] = assay: MTT assay, proliferation of skin cells; type: cell-based; conditions: 24 hr, FIG. 2(B)
Protocol: as §1, §3

TIMP-1 = assay: Western blotting, human fibroblasts; type: cell-based
Protocol: (§4) Signal transduction of skin cells treated with 6-DG is studied. Firstly, 6-DG of different concentration is incubated with 1×10^6 human fibroblasts. After being incubated for 24 hr, the human fibroblasts are washed twice with phosphate-buffered saline (PBS), and then lysed by a lysis buffer containing 50 mM Tris-HCl, pH7.5, 137 mM sodium chloride, 1 mM EDTA, 1% Nonidet P-40, 10% glycerol, 0.1 mM sodium orthovanadate, 10 mM sodium pyrophosphate, 20 mM β-glycerophosphate, 50 mM sodium fluoride, 1 mM phenylmethysulfonyl fluoride, 2 mM leupeptin, and 2 μg/ml aprotinin. A cell extract having the lysed human fibroblasts is separated by a centrifugal force of 10,000 g at 4° C., and supernant of the cell extract is collected for determining protein concentration using Bicinchoninic acid protein assay kit (Pierce, Rockford, Ill., USA). Equal concentration of protein in the supernant is separated by SDS-PAGE, and then blotted to a PVDF membrane (PALL Life Science, Ann Arbor, Mich., USA). After being blocked for 1 hr in phosphate-buffered saline & tween (PBST) containing 5% non-fat milk, primary antibodies are added to the membrane. The membrane is washed with PBST twice, and next secondary antibodies against the primary antibodies are added to the membrane. Finally, signals on the membrane are visualized by enhanced chemiluminescence substrate (PerkinElmer, USA). As the description of “BACKGROUND OF THE INVENTION,” it is said that PMA, an activator for protein kinase C, phosphorylates JNK and ERK to produce MMP-1 and inhibits TIMP-1. For further confirming the effect on signal transduction of skin cells treated with 6-DG, the human fibroblasts are incubated with 20 ng/ml PMA prior to being treated with 6-DG.

MMP-1 [6] = assay: Western blotting, human fibroblasts; type: cell-based; conditions: compared with cells only treated with PMA
Protocol: as §4

human fibroblasts [7] = assay: Proliferation of human fibroblasts with or without PMA (FIG. 5(A)); type: cell-based
c-Jun and ERK = assay: Western blotting, human fibroblasts, phosphorylation; type: cell-based; conditions: compared with cells only treated with PMA
Protocol: Signal transduction of skin cells treated with 6-DG is studied. Firstly, 6-DG of different concentration is incubated with 1×10^6 human fibroblasts. After being incubated for 24 hr, the human fibroblasts are washed twice with phosphate-buffered saline (PBS), and then lysed by a lysis buffer containing 50 mM Tris-HCl, pH7.5, 137 mM sodium chloride, 1 mM EDTA, 1% Nonidet P-40, 10% glycerol, 0.1 mM sodium orthovanadate, 10 mM sodium pyrophosphate, 20 mM β-glycerophosphate, 50 mM sodium fluoride, 1 mM phenylmethysulfonyl fluoride, 2 mM leupeptin, and 2 μg/ml aprotinin. A cell extract having the lysed human fibroblasts is separated by a centrifugal force of 10,000 g at 4° C., and supernant of the cell extract is collected for determining protein concentration using Bicinchoninic acid protein assay kit (Pierce, Rockford, Ill., USA). Equal concentration of protein in the supernant is separated by SDS-PAGE, and then blotted to a PVDF membrane (PALL Life Science, Ann Arbor, Mich., USA). After being blocked for 1 hr in phosphate-buffered saline & tween (PBST) containing 5% non-fat milk, primary antibodies are added to the membrane. The membrane is washed with PBST twice, and next secondary antibodies against the primary antibodies are added to the membrane. Finally, signals on the membrane are visualized by enhanced chemiluminescence substrate (PerkinElmer, USA). […]

PDGF-αβ [8] = assay: ELISA, growth factor expression in conditioned medium of keratinocytes; type: cell-based, human; conditions: 24 hr, medium supernatant, mean ± SD
Protocol: as §1
(§5) Enzyme-linked immunoassay (ELISA) is performed to analyze the effect on the growth factor expression of skin cells treated with different 6-DG concentration (dissolved in DMSO). Firstly, 6-DG of different concentration is incubated in a 6-well culture dish with skin cells cultured in a conditioned medium for 24 hr. Supernant of the conditioned medium is collected for analyzing the concentration of TGF-β, VEGF, and PDGF-αβ following the directions provided by DuoSet ELISA development kits (R&D Systems, USA). With regard to whether DMSO has effect on the growth factor expression or not, skin cells treated with DMSO are used as a control.

VEGF [9] = assay: as above; type: cell-based, human; conditions: 24 hr, medium supernatant, mean ± SD
Protocol: as §1, §5

TGF-β [10] = assay: as above; type: cell-based, human; conditions: 24 hr, medium supernatant, mean ± SD
Protocol: as §1, §5

PDGF-αβ [11] = assay: ELISA, growth factor expression in conditioned medium of fibroblasts; type: cell-based, human; conditions: 24 hr, medium supernatant, mean ± SD
Protocol: as §1, §5

VEGF [12] = assay: as above; type: cell-based, human; conditions: 24 hr, medium supernatant, mean ± SD
Protocol: as §1, §5

TGF-β [13] = assay: as above; type: cell-based, human; conditions: 24 hr, medium supernatant, mean ± SD
Protocol: as §1, §5

[14] = skin cells (fibroblasts and keratinocytes), based on the volume of the composition
[15] = 20 ng/ml PMA prior to 6-DG, compared with PMA only
[16] = 6-DG, compared with untreated (control) and PMA only

## CCCCCC(=O)/C=C(O)/C=C/c1ccc(O)c(OC)c1 [6-DG, 6-dehydrogingerdione]
MMP-1 [1]; 20 ng/ml PMA prior to 6-DG, compared with fibroblasts only treated with PMA
  activity of MMP-1: lower activity of MMP-1
MMP-1 [1]; 6-DG, compared with fibroblasts only treated with PMA
  activity of MMP-1: lower MMP-1 activity
MMP-1 [1]; 6-DG, compared with fibroblasts untreated, FIGS. 6(A)-6(B)
  activity of MMP-1: no obvious difference
Human fibroblasts [2]; 2 μM 6-DG for 24 hr
  migration of human fibroblasts to the wound area: more obvious
Human fibroblasts [2]; 10 μM 6-DG, compared with 2 μM
  migration of human fibroblasts to the wound area: less obvious than that after being treated with 2 μM
Human fibroblasts [2]; [14]
  effective concentration for promoting migration of skin cells: 2 to 50 µM
Human fibroblasts [2]; treated with 6-DG, FIGS. 3(A)-3(B)
  migration of human fibroblasts to the wound area compared with control: obviously migrate to the wound area
Human keratinocytes [3]; 2 μM 6-DG for 24 hr
  migration of human keratinocytes to the wound area: more obvious
Human keratinocytes [3]; 10 μM 6-DG, compared with 2 μM
  migration of human keratinocytes to the wound area: less obvious than that after being treated with 2 μM
Human keratinocytes [3]; treated with 6-DG, FIGS. 3(C)-3(D)
  migration of human keratinocytes to the wound area compared with control: obviously migrate to the wound area
collagen; [15]
  collagen expression level of fibroblasts: still have up-regulated expression of collagen
  collagen expression level per human fibroblast: still has up-regulated expression of collagen
collagen; [16]
  collagen expression level of fibroblasts: up-regulated expression of collagen
  collagen expression level per human fibroblast: up-regulated expression of collagen
Human fibroblasts [4]; 2 μM 6-DG
  proliferation of human fibroblasts compared with control: obviously proliferated
Human fibroblasts [4]; 50 μM 6-DG
  proliferation of human fibroblasts compared with control: obviously proliferated
Human fibroblasts [4]; 100 μM 6-DG
  proliferation of human fibroblasts compared with control: not obviously proliferated
Human fibroblasts [4]; [14]
  effective concentration for promoting skin cell proliferation: 2 to 50 µM
Human keratinocytes [5]; 2 μM 6-DG
  proliferation of human keratinocytes compared with control: obviously proliferated
Human keratinocytes [5]; 50 μM 6-DG
  proliferation of human keratinocytes compared with control: obviously proliferated
Human keratinocytes [5]; 100 μM 6-DG
  proliferation of human keratinocytes compared with control: not obviously proliferated
TIMP-1; 6-DG 24 hr, compared with fibroblasts untreated
  expression of TIMP-1: up-regulate the expression of TIMP-1
TIMP-1; 6-DG, compared with cells only treated with PMA
  expression level of TIMP-1: up-regulated expression level of TIMP-1
MMP-1 [6]; 20 ng/ml PMA prior to 6-DG
  expression level of MMP-1: down-regulated expression level of MMP-1
MMP-1 [6]; 6-DG
  expression level of MMP-1: down-regulated expression level of MMP-1
Human fibroblasts [7]; [15]
  proliferation of fibroblasts: still have obvious proliferation
Human fibroblasts [7]; [16]
  proliferation of fibroblasts: obvious proliferation
c-Jun and ERK; 20 ng/ml PMA prior to 6-DG
  phosphorylation level of c-Jun and ERK: less phosphorylation level of c-Jun and ERK
c-Jun and ERK; 6-DG
  phosphorylation level of c-Jun and ERK: less phosphorylation level of c-Jun and ERK
PDGF-αβ [8]; 6-DG 2 μM
  PDGF-αβ: 5.84 ± 0.2 pg/mL
PDGF-αβ [8]; 6-DG 10 μM
  PDGF-αβ: 4.55 ± 0.1 pg/mL
VEGF [9]; 6-DG 2 μM
  VEGF: 344.3 ± 9.5 pg/mL
VEGF [9]; 6-DG 10 μM
  VEGF: 292.8 ± 7.3 pg/mL
TGF-β [10]; 6-DG 2 μM
  TGF-β: 822.8 ± 15.3 pg/mL
TGF-β [10]; 6-DG 10 μM
  TGF-β: 768.0 ± 9.6 pg/mL
PDGF-αβ [11]; 6-DG 2 μM
  PDGF-αβ: 7.1 ± 0.1 pg/mL
PDGF-αβ [11]; 6-DG 10 μM
  PDGF-αβ: 5.3 ± 0.1 pg/mL
VEGF [12]; 6-DG 2 μM
  VEGF: 432.0 ± 14.6 pg/mL
VEGF [12]; 6-DG 10 μM
  VEGF: 294.5 ± 14.6 pg/mL
TGF-β [13]; 6-DG 2 μM
  TGF-β: 984.5 ± 21.6 pg/mL
TGF-β [13]; 6-DG 10 μM
  TGF-β: 1003.3 ± 24.0 pg/mL
